Experimental data from patent US20250320206A1, “STAT6 DEGRADERS” (Gilead Sciences, Inc., priority 2024, published 2025).

What was measured:
[1] = molecular target: T1, STAT6 (Homo sapiens, UniProt P42226); experiment: Stat6 Degrader Assay (HiBiT based, HeLa LgBiT clone 4.14); type: cell-based; conditions: HeLa LgBiT clone 4.14 HiBiT-STAT6, 4-24 h incubation; values given for compounds with >80% Emax; geometric mean; read-out: STAT6 degradation DC50
T1 construct: These cells express endogenous STAT6; host or cells: HeLa LgBiT clone 4.14
T1 sequence (P42226 1-847): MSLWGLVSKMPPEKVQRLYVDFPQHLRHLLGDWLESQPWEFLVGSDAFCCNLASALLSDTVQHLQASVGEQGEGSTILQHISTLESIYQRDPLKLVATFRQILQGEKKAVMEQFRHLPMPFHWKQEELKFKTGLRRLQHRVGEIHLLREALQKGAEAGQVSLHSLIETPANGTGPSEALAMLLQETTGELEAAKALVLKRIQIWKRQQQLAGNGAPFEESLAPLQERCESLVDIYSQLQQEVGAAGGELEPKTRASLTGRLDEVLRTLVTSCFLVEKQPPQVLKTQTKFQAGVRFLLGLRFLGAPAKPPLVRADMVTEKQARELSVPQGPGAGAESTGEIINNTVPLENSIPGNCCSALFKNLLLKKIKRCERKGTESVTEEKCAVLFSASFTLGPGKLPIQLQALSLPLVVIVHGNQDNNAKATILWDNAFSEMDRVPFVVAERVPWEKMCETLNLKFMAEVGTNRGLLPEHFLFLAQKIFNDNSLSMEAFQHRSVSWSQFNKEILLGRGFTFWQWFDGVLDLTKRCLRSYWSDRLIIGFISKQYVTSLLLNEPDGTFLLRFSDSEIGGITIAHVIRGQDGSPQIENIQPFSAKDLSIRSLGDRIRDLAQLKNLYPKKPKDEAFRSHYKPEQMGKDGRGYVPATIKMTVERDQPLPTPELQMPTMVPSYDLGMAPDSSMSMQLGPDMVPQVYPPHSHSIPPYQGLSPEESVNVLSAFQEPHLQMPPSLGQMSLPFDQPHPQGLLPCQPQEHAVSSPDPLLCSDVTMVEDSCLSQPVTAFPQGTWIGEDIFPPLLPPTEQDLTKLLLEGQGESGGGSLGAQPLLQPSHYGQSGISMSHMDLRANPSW
Outline: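 Luminescence from HiBiT-STAT6 complementing stably expressed LgBiT in HeLa clone 4.14 reports remaining STAT6 protein. Cells (5000/well) exposed to compound for 4-24 h at 37° C; read 0.5 h after Nano-Glo addition. 100% degradation window set with 50 μM terfenadine; percent degradation plotted against concentration.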

[2] = test system: Eotaxin-3 release in human whole blood stimulated with IL-4; experiment: Human Whole Blood Eotaxin-3 Assay (IL-4 stimulated eotaxin-3 release); type: cell-based; conditions: IL-4 stimulation, 48 h, values given for compounds with >80% Emax, geometric mean
Outline: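 Eotaxin-3 (CCL26) release measured by MSD kit in plasma supernatant after 48 h IL-4 stimulation ([…]) of human whole blood. Compounds added in triplicate 4-fold dilutions 2 h before stimulation; 0.5% DMSO final, 37° C, 5% CO2.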

CNc1ccn(-c2ccnc3c2cc([C@H](C)N2CC=C(c4c(C)cc(C(=O)N5CCC(CN6CCN(Cc7ccc8c(c7)n(C7CC7)c(=O)n8C7CCC(=O)NC7=O)CC6)CC5)cc4F)CC2)n3C)c(=O)c1 (stereo partly drawn) [Example 3u122, 3-(3-cyclopropyl-5-((4-((1-(3-fluoro-5-methyl-4-(1-((S)-1-(1-methyl-4-(4-(methylamino)-2-oxopyridin-1 (2H)-yl)-1H-pyrrolo[2,3-b]pyridin-2-yl)ethyl)-1,2,3,6-tetrahydropyridin-4-yl)benzoyl)piperidin-4-yl)methyl)piperazin-1-yl)methyl)-2-oxo-2,3-dihydro-1H-benzo[d]imidazol-1-yl)piperidine-2,6-dione]
DC50 [1]: 1.2 nM | EC50 [2]: 0.6 nM

CNc1cc(=O)n(-c2ccnc3c2cc(CN2CCC(c4c(F)cc(C(=O)N5CCC(CN6CCN(Cc7ccc8c(c7)n(C)c(=O)n8C7CCC(=O)NC7=O)C[C@@H]6C)CC5)cc4F)CC2)n3C)cc1F (stereo partly drawn) [Example 3u60, 3-(5-(((S)-4-((1-(3,5-difluoro-4-(1-((4-(5-fluoro-4-(methylamino)-2-oxopyridin-1 (2H)-yl)-1-methyl-1H-pyrrolo[2,3-b]pyridin-2-yl)methyl)piperidin-4-yl)benzoyl)piperidin-4-yl)methyl)-3-methylpiperazin-1-yl)methyl)-3-methyl-2-oxo-2,3-dihydro-1H-benzo[d]imidazol-1-yl)piperidine-2,6-dione]
DC50 [1]: 0.7 nM | EC50 [2]: 1.6 nM

CNc1ccn(-c2ccnc3c2cc(CN2CC=C(c4c(C)cc(C(=O)N5CCC(CN6CCN(Cc7ccc8c(c7)C(C)(C)C(=O)N8C7CCC(=O)NC7=O)C[C@@H]6C)CC5)cc4F)CC2)n3C)c(=O)c1 (stereo partly drawn) [Example 3u178, 3-(5-(((S)-4-((1-(3-fluoro-5-methyl-4-(1-((1-methyl-4-(4-(methylamino)-2-oxopyridin-1 (2H)-yl)-1H-pyrrolo[2,3-b]pyridin-2-yl)methyl)-1,2,3,6-tetrahydropyridin-4-yl)benzoyl)piperidin-4-yl)methyl)-3-methylpiperazin-1-yl)methyl)-3,3-dimethyl-2-oxoindolin-1-yl)piperidine-2,6-dione]
DC50 [1]: 5.6 nM | EC50 [2]: 7.7 nM

CNc1cc(=O)n(-c2ccnc3c2cc([C@H](C)N2CC=C(c4c(C)cc(C(=O)N5CCC(CN6CCN(c7ccc8c(c7)C7(CC7)C(=O)N8[C@@H]7CCC(=O)NC7=O)C[C@@H]6C)CC5)cc4F)CC2)n3C)cc1F (single isomer, unassigned) [Example 3u64]
DC50 [1]: 7.3 nM | EC50 [2]: 50.3 nM

CNc1cc(=O)n(-c2ccnc3c2cc([C@H](C)N2CC=C(c4c(F)cc(C(=O)N5CCC(CN6CCN(Cc7ccc8c(c7)n(C)c(=O)n8[C@H]7CCC(=O)NC7=O)CC6)CC5)cc4F)CC2)n3C)cc1F (single isomer, unassigned) [Example 3u52]
DC50 [1]: 4.3 nM | EC50 [2]: 1.1 nM

CNc1ccn(-c2ccnc3c2cc(CN2CC=C(c4c(C)cc(C(=O)N5CCC(CN6CCN(Cc7ccc8c(c7)n(C)c(=O)n8[C@H]7CCC(=O)NC7=O)CC6)CC5)cc4F)CC2)n3C)c(=O)c1 (single isomer, unassigned) [Example 3u161]
DC50 [1]: 3.1 nM | EC50 [2]: 1.7 nM

CNc1cc(=O)n(-c2ccnc3c2cc(CN2CCC(c4c(F)cc(C(=O)N5CCC(CN6CCN(Cc7cc8c(cc7F)N(C7CCC(=O)NC7=O)C(=O)C87CC7)CC6)CC5)cc4F)CC2)n3C)cc1F (centres unmarked) [Example 3u93, 3-(5′-((4-((1-(3,5-difluoro-4-(1-((4-(5-fluoro-4-(methylamino)-2-oxopyridin-1 (2H)-yl)-1-methyl-1H-pyrrolo[2,3-b]pyridin-2-yl)methyl)piperidin-4-yl)benzoyl)piperidin-4-yl)methyl)piperazin-1-yl)methyl)-6′-fluoro-2′-oxospiro[cyclopropane-1,3′-indolin]-1′-yl)piperidine-2,6-dione]
DC50 [1]: 26.9 nM | EC50 [2]: 16.6 nM
